Square brackets hold non-standard residues; d marks the D form. Peptide text beside a SMILES is read from it. * marks the point of attachment. NMeF = CN[CH](Cc1ccccc1)C(=O)O; Bn = c1ccc(C*)cc1; Sar = CNCC(=O)O
These compounds were tested against SARS-CoV-2 MPro (Severe acute respiratory syndrome coronavirus 2, UniProt P0DTD1) (assay: MPro activity assay (de-quenching of Edans fluorescence on cleavage of a Dabcyl/Edans peptide)). Conditions: 10 μM or 25 μM compound.
Format: biochemical

Structure (SMILES) | % activity MPro at 10 μM or 25 μM [%]
Oc1cc(O)c2c(c1)O[C@H](c1ccc(O)c(O)c1)[C@H](O)C2 [4b, epicatechin] | 88.7 ± 0.6

Same assay, conditions: 25 μM where stated

Structure (SMILES) | activity against MPro (in words)
Oc1cc(O)c2c(c1)O[C@H](c1ccc(O)c(O)c1)[C@H](O)C2 [4b, epicatechin] | negligible activity

Same assay, conditions: 60 min pre-incubation, 5 μM substrate

Structure (SMILES) | IC50 [nM]
COc1ccc(C(=O)C2=C(O)C(=O)N(c3nc4ccc(Cl)cc4s3)C2c2ccc(F)cc2)cc1OC (stereo not shown) [1a] | < 25000
O=C(/C=C/c1ccc2ccccc2c1)c1ccccc1O [25d] | 500

Same assay, conditions: in-house acquired data, internal screening under standardized conditions (128 compounds)

Structure (SMILES) | Class (MPro activity class)
Cc1ccc2nc(N3C(=O)C(O)=C(C(=O)c4ccc5c(c4)OCCO5)C3c3ccc(F)cc3)sc2c1 (stereo not shown) [ADRMC154] | 0 (compounds with IC50 > 20 μM, percentage inhibition <80% at 20 µM or 50 μM, or percentage enzyme inhibition <50% at 10 µM were labelled as INACTIVE)
COc1ccc(C(=O)C2=C(O)C(=O)N(c3nc4ccc(Cl)cc4s3)C2c2ccc(F)cc2)cc1OC (stereo not shown) [ADKPN164] | 0 (compounds with IC50 > 20 μM, percentage inhibition <80% at 20 µM or 50 μM, or percentage enzyme inhibition <50% at 10 µM were labelled as INACTIVE)
Nc1nc2nc(NCCCN3CCOCC3)ncc2cc1-c1c(Cl)cccc1Cl [ZVR130] | 0 (compounds with IC50 > 20 μM, percentage inhibition <80% at 20 µM or 50 μM, or percentage enzyme inhibition <50% at 10 µM were labelled as INACTIVE)
CC1NC(=O)C(Cc2ccccc2)N(C)C(=O)CNC(=O)C(Cc2ccccc2)N(C)C1=O (stereo not shown) [COV19097] (cyclo(G[NMeF]A[NMeF]); configuration not given here) | 0 (compounds with IC50 > 20 μM, percentage inhibition <80% at 20 µM or 50 μM, or percentage enzyme inhibition <50% at 10 µM were labelled as INACTIVE)
Cc1cccc(C(=O)NCc2ccccc2)c1I [COV19040] | 0 (compounds with IC50 > 20 μM, percentage inhibition <80% at 20 µM or 50 μM, or percentage enzyme inhibition <50% at 10 µM were labelled as INACTIVE)
CNC(=S)NN=C(C)c1cc2ccccc2oc1=O [COV19137] | 0 (compounds with IC50 > 20 μM, percentage inhibition <80% at 20 µM or 50 μM, or percentage enzyme inhibition <50% at 10 µM were labelled as INACTIVE)
O=C(Nc1nc2cc(Sc3ccccc3)ccc2[nH]1)c1ccccc1I [COV19029] | 0 (compounds with IC50 > 20 μM, percentage inhibition <80% at 20 µM or 50 μM, or percentage enzyme inhibition <50% at 10 µM were labelled as INACTIVE)
O=S(=O)(C=Cc1ccc2nonc2c1)c1ccccc1 [COV19498] | 0 (compounds with IC50 > 20 μM, percentage inhibition <80% at 20 µM or 50 μM, or percentage enzyme inhibition <50% at 10 µM were labelled as INACTIVE)
O=c1c2ccccc2sn1Cc1ccc(F)cc1 [COV19003] | 1 (Compounds with IC50 < 10 µM or with a percentage of enzyme inhibition >50% at 10 µM were labelled as ACTIVE)
COc1ccc2nc(N3C(=O)C(O)=C(C(=O)c4ccc5c(c4)OCCO5)C3c3ccc(OC)c(OC)c3)sc2c1 (stereo not shown) [ADRMC155] | 0 (compounds with IC50 > 20 μM, percentage inhibition <80% at 20 µM or 50 μM, or percentage enzyme inhibition <50% at 10 µM were labelled as INACTIVE)
O=C(Cn1ccnc1-n1sc2ccccc2c1=O)NCc1ccccc1 [COV19023] | 0 (compounds with IC50 > 20 μM, percentage inhibition <80% at 20 µM or 50 μM, or percentage enzyme inhibition <50% at 10 µM were labelled as INACTIVE)
CCNC(=S)NN=C(C)c1cc2ccccc2oc1=O [COV19138] | 0 (compounds with IC50 > 20 μM, percentage inhibition <80% at 20 µM or 50 μM, or percentage enzyme inhibition <50% at 10 µM were labelled as INACTIVE)
Cc1[nH]c(C(=O)NC2CCc3nc(NC(=O)CC(=O)O)sc3C2)c(Cl)c1Cl (stereo not shown) [Cpd 54] | 0 (compounds with IC50 > 20 μM, percentage inhibition <80% at 20 µM or 50 μM, or percentage enzyme inhibition <50% at 10 µM were labelled as INACTIVE)
O=c1c2ccccc2sn1-c1ccccc1 [COV19010] | 1 (Compounds with IC50 < 10 µM or with a percentage of enzyme inhibition >50% at 10 µM were labelled as ACTIVE)
CN1CC(=O)NC(Cc2ccccc2)C(=O)N(C)CC(=O)NC(CSCc2ccccc2)C1=O (stereo not shown) [vCOV194219] (cyclo([Sar]C(Bn)[Sar]F); configuration not given here) | 0 (compounds with IC50 > 20 μM, percentage inhibition <80% at 20 µM or 50 μM, or percentage enzyme inhibition <50% at 10 µM were labelled as INACTIVE)
O=C(C1=C(O)C(=O)N(c2nc3ccccc3s2)C1c1ccc(F)cc1)c1ccc2c(c1)OCCO2 (stereo not shown) [ADKPN161] | 0 (compounds with IC50 > 20 μM, percentage inhibition <80% at 20 µM or 50 μM, or percentage enzyme inhibition <50% at 10 µM were labelled as INACTIVE)
Cc1cccc(C(N)=O)c1I [COV19036] | 0 (compounds with IC50 > 20 μM, percentage inhibition <80% at 20 µM or 50 μM, or percentage enzyme inhibition <50% at 10 µM were labelled as INACTIVE)
Cc1ccc2nc(N3C(=O)C(O)=C(C(=O)c4ccc5c(c4)OCCO5)C3c3ccc(O)cc3)sc2c1 (stereo not shown) [AD82] | 0 (compounds with IC50 > 20 μM, percentage inhibition <80% at 20 µM or 50 μM, or percentage enzyme inhibition <50% at 10 µM were labelled as INACTIVE)

Structure (SMILES) | Class (MPro activity class)
CC(=NNC(N)=S)c1c(O)c2ccccc2oc1=O [COV19140] | 0 (compounds with IC50 > 20 μM, percentage inhibition <80% at 20 µM or 50 μM, or percentage enzyme inhibition <50% at 10 µM were labelled as INACTIVE)
Nc1nc2c(s1)CC(NC(=O)c1cc3cc(F)ccc3[nH]1)CC2 (stereo not shown) [Cpd 48] | 0 (compounds with IC50 > 20 μM, percentage inhibition <80% at 20 µM or 50 μM, or percentage enzyme inhibition <50% at 10 µM were labelled as INACTIVE)
COc1ccc(CNC(=O)c2ccccc2I)cc1 [COV19024] | 0 (compounds with IC50 > 20 μM, percentage inhibition <80% at 20 µM or 50 μM, or percentage enzyme inhibition <50% at 10 µM were labelled as INACTIVE)
Cc1ccc(-n2sc3cc(Cl)cc(C)c3c2=O)cc1 [COV19018] | 1 (Compounds with IC50 < 10 µM or with a percentage of enzyme inhibition >50% at 10 µM were labelled as ACTIVE)
Cc1[nH]c(C(=O)Nc2ccc(C(=O)O)cc2)c(Cl)c1Cl [UL-NNS 38-1] | 0 (compounds with IC50 > 20 μM, percentage inhibition <80% at 20 µM or 50 μM, or percentage enzyme inhibition <50% at 10 µM were labelled as INACTIVE)
COc1ccc(C2C(C(=O)c3ccc(OC)c(OC)c3)=C(O)C(=O)N2c2nc3ccc(Cl)cc3s2)cc1 (stereo not shown) [ADKPN163] | 0 (compounds with IC50 > 20 μM, percentage inhibition <80% at 20 µM or 50 μM, or percentage enzyme inhibition <50% at 10 µM were labelled as INACTIVE)
COc1cccc(-n2c(NCCN3CCNCC3)nc3sc4c(c3c2=O)CCCC4)c1 [Cpd 52] | 0 (compounds with IC50 > 20 μM, percentage inhibition <80% at 20 µM or 50 μM, or percentage enzyme inhibition <50% at 10 µM were labelled as INACTIVE)
O=C(Nc1ccc([N+](=O)[O-])cc1)c1ccccc1I [COV19030] | 0 (compounds with IC50 > 20 μM, percentage inhibition <80% at 20 µM or 50 μM, or percentage enzyme inhibition <50% at 10 µM were labelled as INACTIVE)
O=c1c2ccccc2sn1-c1ccc(C(F)(F)F)cc1 [COV19012] | 1 (Compounds with IC50 < 10 µM or with a percentage of enzyme inhibition >50% at 10 µM were labelled as ACTIVE)
O=S(=O)(C=Cc1ccc2no[n+]([O-])c2c1)c1ccccc1 [COV19497] | 1 (Compounds with IC50 < 10 µM or with a percentage of enzyme inhibition >50% at 10 µM were labelled as ACTIVE)
CCOC(=O)C(=O)NC1CCc2nc(NC(=O)c3cc(Cl)c(Cl)[nH]3)sc2C1 (stereo not shown) [Cpd 50] | 0 (compounds with IC50 > 20 μM, percentage inhibition <80% at 20 µM or 50 μM, or percentage enzyme inhibition <50% at 10 µM were labelled as INACTIVE)
CCNC(=S)NN=C(C)c1c(O)c2ccccc2oc1=O [COV19142] | 0 (compounds with IC50 > 20 μM, percentage inhibition <80% at 20 µM or 50 μM, or percentage enzyme inhibition <50% at 10 µM were labelled as INACTIVE)
[O-][n+]1onc2ccc(C=CSc3ccc(F)cc3)cc21 [COV19501] | 1 (Compounds with IC50 < 10 µM or with a percentage of enzyme inhibition >50% at 10 µM were labelled as ACTIVE)
O=c1[nH]sc2ccccc12 [COV19001] | 1 (Compounds with IC50 < 10 µM or with a percentage of enzyme inhibition >50% at 10 µM were labelled as ACTIVE)
COc1ccc(C2C(C(=O)c3ccc4c(c3)OCCO4)=C(O)C(=O)N2c2nc3ccc(OC)cc3s2)cc1 (stereo not shown) [ADKPN160] | 0 (compounds with IC50 > 20 μM, percentage inhibition <80% at 20 µM or 50 μM, or percentage enzyme inhibition <50% at 10 µM were labelled as INACTIVE)
CCCCN(CCCC)C(=O)c1cnc(N)o1 [ZVR-103] | 0 (compounds with IC50 > 20 μM, percentage inhibition <80% at 20 µM or 50 μM, or percentage enzyme inhibition <50% at 10 µM were labelled as INACTIVE)
CCOC(=O)CN(C(=O)C1(C)CCc2c(C)c(O)c(C)c(C)c2O1)C(C(=O)NCCc1ccccc1)c1ccccc1 (stereo not shown) [vCOV194134] | 0 (compounds with IC50 > 20 μM, percentage inhibition <80% at 20 µM or 50 μM, or percentage enzyme inhibition <50% at 10 µM were labelled as INACTIVE)

Same assay, conditions: read-out: MPro activity (%)

Structure (SMILES) | activity at 25 µM [%]
[O-][n+]1onc2ccc(/C=C/[S+]([O-])c3ccc(F)cc3)cc21 (stereo not shown) [10d] | 55.6 ± 3.4
O=C(O)c1ccc2no[n+]([O-])c2c1 [7d] | 66 ± 4
Cc1ccc(S(=O)(=O)/C=C\c2ccc3no[n+]([O-])c3c2)cc1 [19d] | 98.6 ± 2.4
Cc1ccc(S(=O)(=O)/C=C/c2ccc3no[n+]([O-])c3c2)cc1 [20d] | 62.6 ± 4.9
O=C(c1ccc2no[n+]([O-])c2c1)N1CCOCC1 [21d] | 78.7 ± 3.2
COc1ccc(C(=O)C2=C(O)C(=O)N(c3nc4ccc(Cl)cc4s3)C2c2ccc(F)cc2)cc1OC (stereo not shown) [1a] | 34.8 ± 3.4
Cc1c(C(=O)NCc2ccccc2)[n+]([O-])c2ccccc2[n+]1[O-] [4a] | 59.4 ± 3.6

Source: PMC10323144, “Garbage in, garbage out: how reliable training data improved a virtual screening approach against SARS-CoV-2 MPro” (Frontiers in Pharmacology, 2023)
